Test results taken from patent US4868321A, “Isothiocyanate intermediates” (FMC Corporation, priority 1988, dated 1989).

How the values were obtained:
Type in all cases: in vivo
[1] = system: Green Foxtail; test: Postemergence Herbicidal Activity, Green Foxtail; conditions: Setaria viridis, post-emergence; for pest or weed control at 250 g/ha: 0.25 kg/ha
In short: (§1)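 The reported numbers are percent control, obtained after treatment at rates quantified as kilograms per hectare.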

[2] = system: Barnyardgrass; test: Postemergence Herbicidal Activity, Barnyardgrass; conditions: Echinochloa crus-galli, post-emergence; for pest or weed control at 250 g/ha: 0.25 kg/ha
In short: as §1

[3] = system: Barnyardgrass; test: Preemergence Herbicidal Activity, Barnyardgrass; conditions: Echinochloa crus-galli, pre-emergence; for pest or weed control at 250 g/ha: 0.25 kg/ha
In short: as §1

[4] = system: Cotton; test: Preemergence Herbicidal Activity, Cotton
In short: (§2)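 Read-out is percent control (% C) at application rates expressed in kilograms per hectare. Compounds were generally delivered in a 50/50 acetone/water solution, either before emergence or onto emerged plants.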

[5] = system: Soybean; test: Preemergence Herbicidal Activity, Soybean
In short: (§3)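 Compounds were applied at rates given in kilograms per hectare, and herbicidal effect was scored as percent control.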

[6] = system: Soybean; test: Postemergence Herbicidal Activity, Soybean; conditions: Glycine max, post-emergence; for plant injury at 250 g/ha: 0.25 kg/ha
In short: as §3

[7] = system: Field Corn; test: Preemergence Herbicidal Activity, Field Corn; conditions: Zea mays, pre-emergence
In short: as §3

[8] = system: Wheat; test: Preemergence Herbicidal Activity, Wheat; conditions: Triticum aestivum, pre-emergence; for plant injury at 250 g/ha: 0.25 kg/ha
In short: as §3

[9] = system: Johnsongrass; test: Postemergence Herbicidal Activity, Johnsongrass; conditions: Sorghum halepense, post-emergence; for pest or weed control at 250 g/ha: 0.25 kg/ha
In short: as §1

[10] = system: Morningglory; test: Preemergence Herbicidal Activity, Morningglory; conditions: Ipomoea, pre-emergence
In short: as §2

[11] = system: Field Bindweed; test: Postemergence Herbicidal Activity, Field Bindweed; conditions: post-emergence; for pest or weed control at 250 g/ha: 0.25 kg/ha
In short: as §2

[12] = system: Field Corn; test: Postemergence Herbicidal Activity, Field Corn; conditions: Zea mays, post-emergence; for plant injury at 250 g/ha: 0.25 kg/ha
In short: as §3

[13] = system: Velvetleaf; test: Postemergence Herbicidal Activity, Velvetleaf; conditions: Abutilon theophrasti, post-emergence; for pest or weed control at 250 g/ha: 0.25 kg/ha
In short: as §2

[14] = system: Field Bindweed; test: Preemergence Herbicidal Activity, Field Bindweed; conditions: pre-emergence
In short: as §2

[15] = system: Morningglory; test: Postemergence Herbicidal Activity, Morningglory; conditions: Ipomoea, post-emergence; for pest or weed control at 250 g/ha: 0.25 kg/ha
In short: as §2

[16] = system: broad leaf weeds; test: preemergence use against broad leaf weeds; conditions: with crops such as corn, rice, wheat and soybeans
[17] = system: Cotton; test: Postemergence Herbicidal Activity, Cotton; conditions: Gossypium hirsutum, post-emergence; for plant injury at 250 g/ha: 0.25 kg/ha
In short: as §2

[18] = system: Johnsongrass; test: Preemergence Herbicidal Activity, Johnsongrass; conditions: Sorghum halepense, pre-emergence; for pest or weed control at 250 g/ha: 0.25 kg/ha
In short: as §1

[19] = system: Rice; test: Preemergence Herbicidal Activity, Rice; conditions: Oryza sativa, pre-emergence
In short: as §3

[20] = system: Wheat; test: Postemergence Herbicidal Activity, Wheat; conditions: Triticum aestivum, post-emergence; for plant injury at 250 g/ha: 0.25 kg/ha
In short: as §3

[21] = system: Velvetleaf; test: Preemergence Herbicidal Activity, Velvetleaf; conditions: Abutilon theophrasti, pre-emergence
In short: as §2

[22] = system: Green Foxtail; test: Preemergence Herbicidal Activity, Green Foxtail; conditions: Setaria viridis, pre-emergence; for pest or weed control at 250 g/ha: 0.25 kg/ha
In short: as §1

[23] = system: Rice; test: Postemergence Herbicidal Activity, Rice; conditions: Oryza sativa, post-emergence; for plant injury at 250 g/ha: 0.25 kg/ha
In short: as §3

[24] = system: soybeans, corn, barley, wheat, rice (e.g. paddy rice), beans, peas, peanuts and potatoes; test: selective herbicidal use on crops, especially preemergent
[25] = system: broadleafed weeds; test: postemergence control of broadleaf weeds
[26] = system: weeds of wide spectrum; test: weed control of paddy rice in pots, weeds; conditions: 1 day and 11 day treatments, e.g. about 0.06 kg/ha or less
Description: (§4) In addition, tests of the effectiveness of weed control of paddy rice were done in pots containing clay loam paddy soil under water maintained at a depth of 3 cm. In one test tubers of narrowleaf arrowhead (Sagittaria pymaea) and rhizomes of flatsedge (Cyperus serotinus) were planted in pots at depth of 2 cm and 0.5 cm respectively, rice seedlings of 2.2 leaf state were transplanted in depth of 2 cm and 0 cm and a controlled amount of a 10% wp (wettable powder) formulation of the herbicidal compound in water was dropped into the water over the soil at 1 day and 11 days, respectively, after transplanting. In another test, seeds of various weed species (including barnyardgrass, Echinochoa crus-galli; small flower umbrellaplant, Cyperus difformis; bulrush, Scripus juncoides; Japanese ducksalad, Monochoria vaginalis; annual broadleaf weeds; and narrowleaf waterplantain, Alisma canaliculatium) were sown on the surface of the soil and the same (1 day and 11 day) herbicide applications were made.

[27] = system: Rice; test: weed control of paddy rice in pots, transplanted rice; conditions: rice transplanted at a depth of 2 cm
Description: as §4

[28] = system: corn, wheat and soybeans; test: postemergence crop selectivity
[29] = system: cotton or soybeans; test: preemergence crop selectivity; conditions: rates below about 1/4 or 1/10 kg/ha

CCS(=O)(=O)Nc1cc(-n2nnn(CCCF)c2=O)c(F)cc1Br [Compound 34, 1-[4-Bromo-2-fluoro-5-(N--ethylsulfonylamino)phenyl]-4,5-dihydro-]
pest or weed control at 250 g/ha [1]: 90% | pest or weed control at 250 g/ha [2]: 70% | pest or weed control at 250 g/ha [3]: 95% | plant injury at 250 g/ha ([4]; Gossypium hirsutum, pre-emergence, 0.25 kg/ha): 95% | plant injury at 250 g/ha ([5]; Glycine max, pre-emergence, 0.25 kg/ha): 20% | plant injury at 250 g/ha [6]: 70% | plant injury at 250 g/ha ([7]; 0.25 kg/ha): 60% | plant injury at 250 g/ha [8]: 0% | pest or weed control at 250 g/ha [9]: 50% | pest or weed control at 250 g/ha ([10]; 0.25 kg/ha): 100% | pest or weed control at 250 g/ha [11]: 100% | plant injury at 250 g/ha [12]: 40% | pest or weed control at 250 g/ha [13]: 100% | pest or weed control at 250 g/ha ([14]; 0.25 kg/ha): 100% | pest or weed control at 250 g/ha [15]: 100% | usefulness preemergently against broad leaf weeds [16]: particularly useful | plant injury at 250 g/ha [17]: 100% | pest or weed control at 250 g/ha [18]: 50% | plant injury at 250 g/ha ([19]; 0.25 kg/ha): 60% | plant injury at 250 g/ha [20]: 40% | pest or weed control at 250 g/ha ([21]; 0.25 kg/ha): 100% | pest or weed control at 250 g/ha [22]: 70% | plant injury at 250 g/ha [23]: 70%

CCS(=O)(=O)Nc1cc(-n2nnn(CCCF)c2=O)c(F)cc1Cl [Compound 4, 1-[4-chloro-2-fluoro-5-(ethylsulfonylamino)phenyl]-1,4-dihydro-4-(3-fluoropropyl)-5H-tetrazol-5-one]
pest or weed control at 250 g/ha [1]: 80% | pest or weed control at 250 g/ha [2]: 50% | pest or weed control at 250 g/ha [3]: 80% | Preemergence Herbicidal Activity ([4]; 0.25 kg/ha): 95 % Control | Preemergence Herbicidal Activity ([5]; 0.25 kg/ha): 0 % Control | plant injury at 250 g/ha [6]: 60% | plant injury at 250 g/ha [8]: 10% | pest or weed control at 250 g/ha [9]: 20% | effective rate ([24]; "effective at low rates, e.g. at about 0.5 kg/ha and below"): ≤ 0.5 kg/ha | selective herbicidal effectiveness ([24]; especially preemergent use on crops): particularly effective | pest or weed control at 250 g/ha [11]: 100% | plant injury at 250 g/ha [12]: 50% | pest or weed control at 250 g/ha [13]: 100% | control of broadleafed weeds, postemergent ([25]; plantings of corn, wheat, barley, oats, rice and sorghum, about 30 to 250 g/ha, e.g. 125 g/ha): very good control | activity against weeds (paddy) [26]: very high activity | pest or weed control at 250 g/ha [15]: 95% | usefulness preemergently against broad leaf weeds [16]: particularly useful | selectivity (paddy rice) [27]: selectivity favorable to rice | plant injury at 250 g/ha [17]: 100% | pest or weed control at 250 g/ha [18]: 30% | plant injury at 250 g/ha [20]: 20% | pest or weed control at 250 g/ha [22]: 20% | plant injury at 250 g/ha [23]: 20%

CCS(=O)(=O)N(c1cc(-n2nnn(CCCF)c2=O)c(F)cc1Cl)S(C)(=O)=O [Compound 11, 1-[4-chloro-2-fluoro-5-[(N--ethylsulfonyl-N--methylsulfonyl)amino]-phenyl]-1,4-dihydro-4-(3-fluoropropyl)-5H--tetrazol-5-one]
pest or weed control at 500 g/ha ([1]; 0.5 kg/ha): 80% | pest or weed control at 500 g/ha ([2]; 0.5 kg/ha): 80% | selectivity for crops, postemergence [28]: favorable selectivity | pest or weed control at 500 g/ha ([3]; 0.5 kg/ha): 100% | plant injury at 500 g/ha ([4]; Gossypium hirsutum, pre-emergence, 0.5 kg/ha): 100% | plant injury at 500 g/ha ([5]; Glycine max, pre-emergence, 0.5 kg/ha): 30% | plant injury at 500 g/ha ([6]; 0.5 kg/ha): 60% | plant injury at 500 g/ha ([7]; 0.5 kg/ha): 95% | plant injury at 500 g/ha ([8]; 0.5 kg/ha): 80% | pest or weed control at 500 g/ha ([9]; 0.5 kg/ha): 50% | pest or weed control at 500 g/ha ([10]; 0.5 kg/ha): 100% | pest or weed control at 500 g/ha ([11]; 0.5 kg/ha): 100% | plant injury at 500 g/ha ([12]; 0.5 kg/ha): 80% | pest or weed control at 500 g/ha ([13]; 0.5 kg/ha): 100% | pest or weed control at 500 g/ha ([14]; 0.5 kg/ha): 100% | results in postemergence use against broadleafed weeds ([25]; postemergence, corn, wheat and soybeans): particularly good results | pest or weed control at 500 g/ha ([15]; 0.5 kg/ha): 80% | plant injury at 500 g/ha ([17]; 0.5 kg/ha): 100% | pest or weed control at 500 g/ha ([18]; 0.5 kg/ha): 90% | plant injury at 500 g/ha ([19]; 0.5 kg/ha): 80% | plant injury at 500 g/ha ([20]; 0.5 kg/ha): 70% | pest or weed control at 500 g/ha ([21]; 0.5 kg/ha): 100% | pest or weed control at 500 g/ha ([22]; 0.5 kg/ha): 100% | plant injury at 500 g/ha ([23]; 0.5 kg/ha): 40%

CCCN(c1cc(-n2nnn(CCCF)c2=O)c(F)cc1Cl)S(=O)(=O)CC [Compound 14]
pest or weed control at 1000 g/ha ([1]; 1.0 kg/ha): 100% | pest or weed control at 1000 g/ha ([2]; 1.0 kg/ha): 100% | pest or weed control at 1000 g/ha ([3]; 1.0 kg/ha): 100% | plant injury at 1000 g/ha ([4]; Gossypium hirsutum, pre-emergence, 1.0 kg/ha): 100% | plant injury at 1000 g/ha ([5]; Glycine max, pre-emergence, 1.0 kg/ha): 95% | plant injury at 1000 g/ha ([6]; 1.0 kg/ha): 100% | plant injury at 1000 g/ha ([7]; 1.0 kg/ha): 100% | plant injury at 1000 g/ha ([8]; 1.0 kg/ha): 100% | pest or weed control at 1000 g/ha ([9]; 1.0 kg/ha): 100% | pest or weed control at 1000 g/ha ([10]; 1.0 kg/ha): 100% | pest or weed control at 1000 g/ha ([11]; 1.0 kg/ha): 100% | plant injury at 1000 g/ha ([12]; 1.0 kg/ha): 100% | pest or weed control at 1000 g/ha ([13]; 1.0 kg/ha): 100% | pest or weed control at 1000 g/ha ([14]; 1.0 kg/ha): 100% | pest or weed control at 1000 g/ha ([15]; 1.0 kg/ha): 100% | plant injury at 1000 g/ha ([17]; 1.0 kg/ha): 100% | pest or weed control at 1000 g/ha ([18]; 1.0 kg/ha): 100% | plant injury at 1000 g/ha ([19]; 1.0 kg/ha): 100% | plant injury at 1000 g/ha ([20]; 1.0 kg/ha): 100% | herbicide selectivity [29]: highly selective | pest or weed control at 1000 g/ha ([21]; 1.0 kg/ha): 100% | pest or weed control at 1000 g/ha ([22]; 1.0 kg/ha): 100% | plant injury at 1000 g/ha ([23]; 1.0 kg/ha): 100%
